# Measured values: patent publication US6977262B2, “Dihydropyrazolopyridine compounds and pharmaceutical use thereof” (Mitsubishi Pharma Corporation, priority 2001, dated 2005)
row,Structure (SMILES),melting point [°C]
1,"CCCC1=C(C#N)C(c2ccccc2C#N)c2c[nH]nc2N1 (stereo not shown) [Example 133, 5-Cyano-4-(2-cyanophenyl)-4,7-dihydro-6-propyl-2H-pyrazolo[3,4-b]pyridine]",218
2,"CCCC1=C(C#N)C(c2cccc(Cl)c2Cl)c2c[nH]nc2N1 (stereo not shown) [Example 134, 5-Cyano-4-(2,3-dichlorophenyl)-4,7-dihydro-6-propyl-2H-pyrazolo[3,4-b]pyridine]",242
3,"CCCC1=C(C#N)C(c2cccc3ccccc23)c2c[nH]nc2N1 (stereo not shown) [Example 135, 5-Cyano-4,7-dihydro-4-(naphthalen-1-yl)-6-propyl-2H-pyrazolo[3,4-b]pyridine]",263
4,"CCCC1=C(C#N)C(c2cccc3nonc23)c2c[nH]nc2N1 (stereo not shown) [Example 137, 4-(2,1,3-Benzoxadiazol-4-yl)-5-cyano-4,7-dihydro-6-propyl-2H-pyrazolo[3,4-b]pyridine]",194
5,"CCCC1=C(C#N)C(c2cccc3nsnc23)c2c[nH]nc2N1 (stereo not shown) [Example 138, 4-(2,1,3-Benzothiadiazol-4-yl)-5-cyano-4,7-dihydro-6-propyl-2H-pyrazolo[3,4-b]pyridine]",195
6,"CCCC1=C(C#N)C(c2cccc3oc(C)nc23)c2c[nH]nc2N1 (stereo not shown) [Example 139, 5-Cyano-4,7-dihydro-4-(2-methylbenzoxazol-4-yl)-6-propyl-2H-pyrazolo[3,4-b]pyridine]",208
7,"CCCC1=C(C#N)[C@H](c2cccc3nonc23)c2c[nH]nc2N1 [Example 140, R(−) 4-(2,1,3-Benzoxadiazol-4-yl)-5-cyano-4,7-dihydro-6-propyl-2H-pyrazolo[3,4-b]pyridine]",170
8,"COc1ccccc1C1=C(C#N)C(c2cccc3nonc23)c2c[nH]nc2N1 (stereo not shown) [Example 159, 4-(2,1,3-Benzoxadiazol-4-yl)-5-cyano-4,7-dihydro-6-(2-methoxyphenyl)-2H-pyrazolo[3,4-b]pyridine]",180
9,"COc1cccc(C2=C(C#N)C(c3cccc4nonc34)c3c[nH]nc3N2)c1 (stereo not shown) [Example 160, 4-(2,1,3-Benzoxadiazol-4-yl)-5-cyano-4,7-dihydro-6-(3-methoxyphenyl)-2H-pyrazolo[3,4-b]pyridine]",198
10,"COc1ccc(C2=C(C#N)C(c3cccc4nonc34)c3c[nH]nc3N2)cc1 (stereo not shown) [Example 161, 4-(2,1,3-Benzoxadiazol-4-yl)-5-cyano-4,7-dihydro-6-(4-methoxyphenyl)-2H-pyrazolo[3,4-b]pyridine]",244
11,"COc1ccccc1C1=C(C#N)C(c2cccc3nsnc23)c2c[nH]nc2N1 (stereo not shown) [Example 163, 4-(2,1,3-Benzothiadiazol-4-yl)-5-cyano-4,7-dihydro-6-(2-methoxyphenyl)-2H-pyrazolo[3,4-b]pyridine]",231
12,"COc1cccc(C2=C(C#N)C(c3cccc4nsnc34)c3c[nH]nc3N2)c1 (stereo not shown) [Example 164, 4-(2,1,3-Benzothiadiazol-4-yl)-5-cyano-4,7-dihydro-6-(3-methoxyphenyl)-2H-pyrazolo[3,4-b]pyridine]",220
13,"COc1ccc(C2=C(C#N)C(c3cccc4nsnc34)c3c[nH]nc3N2)cc1 (stereo not shown) [Example 165, 4-(2,1,3-Benzothiadiazol-4-yl)-5-cyano-4,7-dihydro-6-(4-methoxyphenyl)-2H-pyrazolo[3,4-b]pyridine]",238
14,"N#CC1=C(c2cccc3ccccc23)Nc2n[nH]cc2C1c1cccc2nonc12 (stereo not shown) [Example 169, 4-(2,1,3-Benzoxadiazol-4-yl)-5-cyano-4,7-dihydro-6-(naphthalen-1-yl)-2H-pyrazolo[3,4-b]pyridine]",213
15,"N#CC1=C(c2ccco2)Nc2n[nH]cc2C1c1cccc2nonc12 (stereo not shown) [Example 170, 4-(2,1,3-Benzoxadiazol-4-yl)-5-cyano-6-(furan-2-yl)-4,7-dihydro-2H-pyrazolo[3,4-b]pyridine]",241
16,"N#CC1=C(c2cccs2)Nc2n[nH]cc2C1c1cccc2nonc12 (stereo not shown) [Example 171, 4-(2,1,3-Benzoxadiazol-4-yl)-5-cyano-4,7-dihydro-6-(thiophen-2-yl)-2H-pyrazolo[3,4-b]pyridine]",230
17,"N#CC1=C(c2ccco2)Nc2n[nH]cc2C1c1cccc2nonc12 (stereo not shown) [Example 173, 4-(2,1,3-Benzoxadiazol-4-yl)-5-cyano-6-(furan-2-yl)-4,7-dihydro-2H-pyrazolo[3,4-b]pyridine]",237
18,"N#CC1=C(c2ccsc2)Nc2n[nH]cc2C1c1cccc2nonc12 (stereo not shown) [Example 174, 4-(2,1,3-Benzoxadiazol-4-yl)-5-cyano-4,7-dihydro-6-(thiophen-3-yl)-2H-pyrazolo[3,4-b]pyridine]",242
19,"N#CC1=C(c2cc3ccccc3o2)Nc2n[nH]cc2C1c1cccc2nonc12 (stereo not shown) [Example 175, 6-(Benzo[b]furan-2-yl)-4-(2,1,3-benzoxadiazol-4-yl)-5-cyano-4,7-dihydro-2H-pyrazolo[3,4-b]pyridine]",> 270

# Results, then the molecule that gave them:
row,melting point [°C],Structure (SMILES)
1,230,"CCCC1=C(C#N)C(c2cccc3c2OCCC3)c2c[nH]nc2N1 (stereo not shown) [Example 136, 5-Cyano-4-(3,4-dihydro-2H-benzopyran-8-yl)-4,7-dihydro-6-propyl-2H-pyrazolo[3,4-b]pyridine]"
2,158,"N#CC1=C(c2ccccc2)Nc2n[nH]cc2C1c1ccccc1Cl (stereo not shown) [Example 142, 4-(2-Chlorophenyl)-5-cyano-4,7-dihydro-6-phenyl-2H-pyrazolo[3,4-b]pyridine]"
3,146,"CSc1ccccc1C1C(C#N)=C(c2ccccc2)Nc2n[nH]cc21 (stereo not shown) [Example 143, 5-Cyano-4,7-dihydro-4-(2-methylthiophenyl)-6-phenyl-2H-pyrazolo[3,4-b]pyridine]"
4,148,"N#CC1=C(c2ccccc2)Nc2n[nH]cc2C1c1ccccc1C#N (stereo not shown) [Example 144, 5-Cyano-4-(2-cyanophenyl)-4,7-dihydro-6-phenyl-2H-pyrazolo[3,4-b]pyridine]"
5,162,"N#CC1=C(c2ccccc2)Nc2n[nH]cc2C1c1cccc(Cl)c1Cl (stereo not shown) [Example 145, 5-Cyano-4-(2,3-dichlorophenyl)-4,7-dihydro-6-phenyl-2H-pyrazolo[3,4-b]pyridine]"
6,174,"N#CC1=C(c2ccccc2)Nc2n[nH]cc2C1c1cccc2ccccc12 (stereo not shown) [Example 146, 5-Cyano-4,7-dihydro-4-(naphthalen-1-yl)-6-phenyl-2H-pyrazolo[3,4-b]pyridine]"
7,> 270,"N#CC1=C(c2ccccc2)Nc2n[nH]cc2C1c1cccc(C#N)c1Br (stereo not shown) [Example 147, 4-(2-Bromo-3-cyanophenyl)-5-cyano-4,7-dihydro-6-phenyl-2H-pyrazolo[3,4-b]pyridine]"
8,255,"N#CC1=C(c2ccccc2)Nc2n[nH]cc2C1c1cccc2c1OCCC2 (stereo not shown) [Example 148, 5-Cyano-4-(3,4-dihydro-2H-benzopyran-8-yl)-4,7-dihydro-6-phenyl-2H-pyrazolo[3,4-b]pyridine]"
9,165,"N#CC1=C(c2ccccc2)Nc2n[nH]cc2C1c1cccc(F)c1F (stereo not shown) [Example 149, 5-Cyano-4-(2,3-difluorophenyl)-4,7-dihydro-6-phenyl-2H-pyrazolo[3,4-b]pyridine]"
10,206,"COc1ccccc1C1C(C#N)=C(c2ccccc2)Nc2n[nH]cc21 (stereo not shown) [Example 150, 5-Cyano-4,7-dihydro-4-(2-methoxyphenyl)-6-phenyl-2H-pyrazolo[3,4-b]pyridine]"
11,220,"COc1ccccc1C1=C(C#N)C(c2ccccc2OC)c2c[nH]nc2N1 (stereo not shown) [Example 151, 5-Cyano-4,7-dihydro-4,6-bis-(2-methoxyphenyl)-2H-pyrazolo[3,4-b]pyridine]"
12,192,"COc1cccc(C2=C(C#N)C(c3ccccc3OC)c3c[nH]nc3N2)c1 (stereo not shown) [Example 152, 5-Cyano-4,7-dihydro-4-(2-methoxyphenyl)-6-(3-methoxyphenyl)-2H-pyrazolo[3,4-b]pyridine]"
13,149,"COc1ccc(C2=C(C#N)C(c3ccccc3OC)c3c[nH]nc3N2)cc1 (stereo not shown) [Example 153, 5-Cyano-4,7-dihydro-4-(2-methoxyphenyl)-6-(4-methoxyphenyl)-2H-pyrazolo[3,4-b]pyridine]"
14,221,"N#CC1=C(c2ccccc2)Nc2n[nH]cc2C1c1ccccc1[N+](=O)[O-] (stereo not shown) [Example 154, 5-Cyano-4,7-dihydro-4-(2-nitrophenyl)-6-phenyl-2H-pyrazolo[3,4-b]pyridine]"
15,207,"COc1ccccc1C1=C(C#N)C(c2ccccc2[N+](=O)[O-])c2c[nH]nc2N1 (stereo not shown) [Example 155, 5-Cyano-4,7-dihydro-6-(2-methoxyphenyl)-4-(2-nitrophenyl)-2H-pyrazolo[3,4-b]pyridine]"
16,220,"COc1cccc(C2=C(C#N)C(c3ccccc3[N+](=O)[O-])c3c[nH]nc3N2)c1 (stereo not shown) [Example 156, 5-Cyano-4,7-dihydro-6-(3-methoxyphenyl)-4-(2-nitrophenyl)-2H-pyrazolo[3,4-b]pyridine]"
17,215,"COc1ccc(C2=C(C#N)C(c3ccccc3[N+](=O)[O-])c3c[nH]nc3N2)cc1 (stereo not shown) [Example 157, 5-Cyano-4,7-dihydro-6-(4-methoxyphenyl)-4-(2-nitrophenyl)-2H-pyrazolo[3,4-b]pyridine]"
18,231,"N#CC1=C(c2ccccc2)Nc2n[nH]cc2C1c1cccc2nonc12 (stereo not shown) [Example 158, 4-(2,1,3-Benzoxadiazol-4-yl)-5-cyano-4,7-dihydro-6-phenyl-2H-pyrazolo[3,4-b]pyridine]"
19,258,"N#CC1=C(c2ccccc2)Nc2n[nH]cc2C1c1cccc2nsnc12 (stereo not shown) [Example 162, 4-(2,1,3-Benzothiadiazol-4-yl)-5-cyano-4,7-dihydro-6-phenyl-2H-pyrazolo[3,4-b]pyridine]"
20,236,"N#CC1=C(c2ccncc2)Nc2n[nH]cc2C1c1cccc2nonc12 (stereo not shown) [Example 166, 4-(2,1,3-Benzoxadiazol-4-yl)-5-cyano-4,7-dihydro-6-(pyridin-4-yl)-2H-pyrazolo[3,4-b]pyridine]"
21,228,"N#CC1=C(c2ccc3ccccc3c2)Nc2n[nH]cc2C1c1cccc2nonc12 (stereo not shown) [Example 172, 4-(2,1,3-Benzoxadiazol-4-yl)-5-cyano-4,7-dihydro-6-(naphthalen-2-yl)-2H-pyrazolo[3,4-b]pyridine]"
